# Like-named read-outs stand apart in the source and are kept apart here.
# Test system: stomach mucosa
# Experiment: cytoprotective activity in rats (ethanol-induced stomach mucosa lesions)
# Type: in vivo, Sprague-Dawley rats
# Settings: for response vs control in vivo at 5 mg/kg / inhibition in vivo at 5 mg/kg: Rattus norvegicus, 1 h; for response vs control in vivo at 5 mg/kg / inhibition in vivo at 5 mg/kg / % Protection: 5 mg per kg oral, half hour before absolute ethanol 10 ml per kg oral; for response vs control in vivo at 5 mg/kg: average lesion length as % of control animals; for inhibition in vivo at 5 mg/kg: lesions vs control, read-out: LESIONS % reduction; for cytoprotective activity (in words): comparison of enantiomers and racemate, Table III; for % Protection: optically pure compounds of Example XIX
# Experimental: A number of the 7-oxa prostanoic acid derivatives has been tested for cytoprotective activity in rats. In this test, Sprague-Dawley rats are fasted for 24 hours prior to the pretreatment. The pretreatment is oral administration of a 5 mg per kg body weight dose of the prostanoid in 2.5 ml of a vehicle consisting of Tween 80 (0.75%) and the balance water. The control animals are given 2.5 ml of the vehicle, without prostanoid. A half hour after the pretreatment, absolute ethanol is administered orally to the animals, in a dose of 10 ml per kg body weight. One hour later the animals are sacrificed, their stomachs dissected out, opened along the greater curvature and the mucose examined for lesions. The average lesion length is expressed as percentage of the average lesion length found in the stomach mucosa of control animals.
# Importantly, this test measures the active cytoprotective properties of the prostanoids, independent of the gastric secretion inhibition that these compounds may or may not show. The test is discussed more fully by Robert et al., Gastroenterology 77 (1979) 433, incorporated herein by reference.
# methyl-7-oxa-9-oxo-Prostanoate derivatives were tested for cytoprotective properties. The compounds differed with respect to the nature of the C13 -C14 bond (triple, cis or trans double, or single), the substituent(s) at the 15-position and at the 16-position. […]
# The optically pure compounds of Example XIX were tested for cytoprotective activity. The following results were obtained (Table III).
# [1] = methyl-7-oxa-9-alpha-hydroxy prost-13,14-ynoate derivatives
# [2] = 7-oxa-9-oxo-methyl prostanoate derivatives
SMILES,response vs control in vivo at 5 mg/kg [2],inhibition in vivo at 5 mg/kg [2],also measured
CCCCC(C)(C)C(O)C#C[C@H]1CC[C@H](O)[C@@H]1OCCCCCC(=O)OC (relative stereo),–,–,response vs control in vivo at 5 mg/kg [1]: 83%; inhibition in vivo at 5 mg/kg [1]: 17%
CCCCCC(=O)C#C[C@H]1CC[C@H](O)[C@@H]1OCCCCCC(=O)O (relative stereo),–,–,response vs control in vivo at 5 mg/kg [1]: 7%; inhibition in vivo at 5 mg/kg [1]: 93%
"CCCCCC(O)/C=C\[C@H]1CCC(=O)[C@@H]1OCCCCCC(=O)OC (relative stereo) [cis (R,S)OH H,H (7-oxa-9-oxo), methyl-15-hydroxy-7-oxa-9-oxo-cis-prost-13-14-enoate]",31%,69%,–
"CCCCCC(C)(O)/C=C\[C@H]1CCC(=O)[C@@H]1OCCCCCC(=O)OC (relative stereo) [cis (R,S)OH,Me H,H (7-oxa-9-oxo)]",71%,29%,–
"CCCCCC(=O)/C=C\[C@H]1CCC(=O)[C@@H]1OCCCCCC(=O)OC (relative stereo) [cis oxo H,H (7-oxa-9-oxo), methyl-9,15-dioxo-7-oxa-cis-prost-13,14-enoate]",113%,-13%,–
"CCCCCC(O)C#C[C@H]1CC[C@H](O)[C@@H]1OCCCCCC(=O)OC (relative stereo) [methyl-9-alpha-hydroxy-15-hydroxy-7-oxa-Prost-13,14-ynoate]",–,–,response vs control in vivo at 5 mg/kg [1]: 93%; inhibition in vivo at 5 mg/kg [1]: 7%
"CCCCCC(C)(O)CC[C@H]1CCC(=O)[C@@H]1OCCCCCC(=O)OC (relative stereo) [single (R,S)OH,Me H,H (7-oxa-9-oxo)]",67%,33%,–
"CCCCCC(=O)CC[C@H]1CCC(=O)[C@@H]1OCCCCCC(=O)OC (relative stereo) [single oxo H,H (7-oxa-9-oxo)]",128%,-28%,–
"CCCCCC(C)(O)/C=C/[C@H]1CCC(=O)[C@@H]1OCCCCCC(=O)OC (relative stereo) [trans (R,S)OH,Me H,H (7-oxa-9-oxo)]",54%,46%,–
"CCCCCC(=O)/C=C/[C@H]1CCC(=O)[C@@H]1OCCCCCC(=O)OC (relative stereo) [trans oxo H,H (7-oxa-9-oxo)]",118%,-18%,–
"CCCCCC(O)C#C[C@H]1CCC(=O)[C@@H]1OCCCCCC(=O)OC (relative stereo) [triple (R,S)OH H,H (7-oxa-9-oxo), methyl 15-hydroxy-7-oxa-9-oxo-prost-13,14-ynoate]",31%,69%,–
"CCCCCC(C)(O)C#C[C@H]1CCC(=O)[C@@H]1OCCCCCC(=O)OC (relative stereo) [triple (R,S)OH,Me H,H (7-oxa-9-oxo)]",82%,18%,–
"CCCCCCC#C[C@H]1CC[C@H](O)[C@@H]1OCCCCCC(=O)OC (relative stereo) [triple H,H H,H (7-oxa-9-alpha-hydroxy)]",–,–,response vs control in vivo at 5 mg/kg [1]: 90%; inhibition in vivo at 5 mg/kg [1]: 10%
"CCCCCCC#C[C@H]1CCC(=O)[C@@H]1OCCCCCC(=O)OC (relative stereo) [triple H,H H,H (7-oxa-9-oxo)]",81%,19%,–
"CCCCCC(=O)C#C[C@H]1CC[C@H](O)[C@@H]1OCCCCCC(=O)OC (relative stereo) [triple oxo H,H (7-oxa-9-alpha-hydroxy), methyl 9-alpha-hydroxy-7-oxa-15-oxo-prost-13,14-ynoate]",–,–,response vs control in vivo at 5 mg/kg [1]: 20%; inhibition in vivo at 5 mg/kg [1]: 80%
"CCCCCC(=O)C#C[C@H]1CCC(=O)[C@@H]1OCCCCCC(=O)OC (relative stereo) [triple oxo H,H (7-oxa-9-oxo), methyl-9,15-dioxo-7-oxa-prost-13,14-ynoate]",4%,96%,cytoprotective activity (in words): the same
"CCCCC(C)(C)C(=O)C#C[C@H]1CCC(=O)[C@@H]1OCCCCCC(=O)OC (relative stereo) [triple oxo Me,Me (7-oxa-9-oxo)]",16%,84%,–
"CCCCC[C@H](O)C#CC1CCC(=O)C1OCCCCCC(=O)OC (stereo partly drawn) [(18), methyl-(S)-15-hydroxy-7-oxa-9-oxo-prost-13,14-ynoate]",–,–,cytoprotective activity (in words): high cytoprotective activity; % Protection: 96%
"CCCCC[C@@H](O)C#CC1CCC(=O)C1OCCCCCC(=O)OC (stereo partly drawn) [(19), methyl-(R)-15-hydroxy-7-oxa-9-oxo-prost-13,14-ynoate]",–,–,% Protection: -34%

# Reference: patent publication US4345984A, “Novel prostaglandin analogues and process for making same” (The Procter & Gamble Company, priority 1981, dated 1982)
